Experimental data published in article PMC4957748, “Development of Novel Erythromycin Derivatives with Inhibitory Activity against Proliferation of Tumor Cells” (PLoS ONE, 2016).

Legend:
[1] = test system: oral carcinoma (KB) cells; experiment: MTT antiproliferative assay, KB; type: cell-based, human; settings: Homo sapiens, KB, 24 h of drug exposure, mean±SD of 3 experiments
Method: (§1) In vitro antiproliferative activity against three human tumor cell lines, including gastric adenocarcinoma (SGC-7901), oral carcinoma (KB) and fibrosarcoma (HT-1080), was evaluated using the MTT assay with cis-platinum (Cpt) as the positive control.
(§2) The antiproliferative activity of the synthetic compounds was measured by 3-(4, 5- dimethylthiazol-2-yl)-2, 5-diphenyltetrazolium bromide (MTT) assay. Cells were seeded in 96-well plates (Corning, NY, USA) at a density of 8×10^3 per well. After 24 h of incubation, cells were treated with different concentrations (0.1, 0.3, 1, 3 and 10 μg/ml) of the EM-A dimers for the indicated time periods. Afterwards, MTT (Sigma, St. Louis, MO) solution [5.0 mg/ml in phosphate-buffered saline (PBS)] was added (20 μl/well) and incubated for another 4 h at 37°C. The purple formazan crystals were then dissolved in 100 μl dimethyl sulfoxide (DMSO). After 5 min, the plates were read on a plate microreader (TECANSPECTRA, Wetzlar, Germanay) at 490 nm. The IC50 values were obtained using the software of Dose–Effect Analysis with Microcomputers and were defined as concentration of drug causing 50% inhibition in absorbance compared with control cells. Assays were performed in triplicate from three independent experiments.

[2] = test system: normal mouse fibroblast cells (L929); experiment: MTT assay, toxicity against normal fibroblasts L929; type: cell-based; settings: L929, 24 h of drug exposure
Method: as §2

[3] = test system: fibrosarcoma (HT-1080) cells; experiment: MTT antiproliferative assay, HT-1080; type: cell-based, human; settings: Homo sapiens, HT-1080, 24 h of drug exposure, mean±SD of 3 experiments
Method: as §1, §2

[4] = test system: gastric adenocarcinoma (SGC-7901) cells; experiment: MTT antiproliferative assay, SGC-7901; type: cell-based, human; settings: Homo sapiens, SGC-7901, 24 h of drug exposure, mean±SD of 3 experiments
Method: as §1, §2

IC50 [1] [µM] | IC50 [3] [µM] | IC50 [4] [µM] | SMILES | IC50 [2] [µM]
> 100 | > 100 | > 100 | CC[C@H]1OC(=O)[C@H](C)[C@@H](O[C@H]2C[C@@](C)(OC)[C@@H](O)[C@H](C)O2)[C@H](C)[C@@H](O[C@@H]2O[C@H](C)C[C@H](N(C)C)[C@H]2O)[C@](C)(OC)C[C@@H](C)C(=O)[C@H](C)[C@@H](O)[C@]1(C)O [clarithromycin, reference compound] | > 100
3.1 ± 0.3 | 11.9 ± 0.8 | 27.1 ± 2.2 | CCC1OC(=O)C(C)C(O)C(C)C(OC2OC(C)CC(N(C)CC=CCN(C)C3CC(C)OC(OC4C(C)C(OC5CC(C)(OC)C(O)C(C)O5)C(C)C(=O)OC(CC)C(C)(O)C(O)C(C)C(=O)C(C)CC4(C)OC)C3O)C2O)C(C)(OC)CC(C)C(=O)C(C)C(O)C1(C)O (stereo not drawn) [Compound 1i] | > 100
26.4 ± 2.4 | 23.7 ± 2.2 | 30.6 ± 2.8 | CCC1OC(=O)C(C)C(O)C(C)C(OC2OC(C)CC(N(C)CC=CCN(C)C3CC(C)OC(OC4C(C)C(OC5CC(C)(OC)C(O)C(C)O5)C(C)C(=O)OC(CC)C(C)(O)C(O)C(C)C(=NO)C(C)CC4(C)OC)C3O)C2O)C(C)(OC)CC(C)C(=NO)C(C)C(O)C1(C)O (stereo not drawn) [Compound 1j] | > 100
